Experiments:
Experiment in all cases: Time to kill comparison
Assay type in all cases: cell-based
Candida albicans = details: 128 ppm; for exposure time to complete kill: C. albicans, challenge 10^4-10^5 CFU/mL; for Number of Microbial Colonies: Candida albicans, 5 replicates, TNTC = too numerous to count
Procedure: (§1) Alexidine and Chlorhexidine, both at a concentration of 128 ppm were exposed to a Gram positive bacteria (Staphylococcus aureus), a Gram negative bacteria (Pseudomonas aeruginosa), and a fungus (Candida albicans). The challenge concentration for each organism was 10^4-10^5 CFU/mL, and the exposure time varied from 0.5-60 minutes. […] Complete kill of all three organisms was observed within 0.5-1 minute of Alexidine exposure.

Pseudomonas aeruginosa = details: P. aeruginosa, 128 ppm, challenge 10^4-10^5 CFU/mL
Procedure: as §1

Staphylococcus aureus = details: 128 ppm; for exposure time to complete kill: S. aureus, challenge 10^4-10^5 CFU/mL; for Number of Microbial Colonies: Staphylococcus aureus, 5 replicates, TNTC = too numerous to count
Procedure: as §1

Row | Structure (SMILES) | exposure time to complete kill (Candida albicans) | exposure time to complete kill (Pseudomonas aeruginosa) | exposure time to complete kill (Staphylococcus aureus) | Number of Microbial Colonies (Candida albicans; exposure 0.5 minutes) | Number of Microbial Colonies (Candida albicans; exposure 1 minute) | Number of Microbial Colonies (Candida albicans; exposure 5 minutes) | Number of Microbial Colonies (Staphylococcus aureus; exposure 0.5 minutes) | Number of Microbial Colonies (Staphylococcus aureus; exposure 1 minute) | Number of Microbial Colonies (Staphylococcus aureus; exposure 5 minutes)
1 | CCCCC(CC)CNC(=N)NC(=N)NCCCCCCNC(=N)NC(=N)NCC(CC)CCCC (stereo not drawn) [Alexidine] | 0.5 to 1 min | 0.5 to 1 min | 0.5 to 1 min | – | – | – | – | – | –
2 | [H]/N=C(\N/C(=N/[H])NCCCCCCNC(=N)NC(=N)Nc1ccc(Cl)cc1)Nc1ccc(Cl)cc1 [Chlorhexidine] | 60 min | 5 min | 60 min | TNTC | TNTC | TNTC | TNTC | TNTC | TNTC

From patent US20210178009A1, “WOUND CARE PRODUCTS COMPRISING ALEXIDINE” (TELEFLEX MEDICAL INCORPORATED, priority 2015, published 2021)
